Assay results: the supplement of paper PMC12592484

test system: PF179T; assay: drug sensitivity score (DSS2, normalised partial AUC of dose-response, 72 h CellTiter-Glo viability) (DSS (dimensionless)); higher = more sensitive (stronger growth inhibition / cytotoxicity); extreme values may be limits of the assay
How it was run: (§1)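 Low-passage primary prostate cancer-associated fibroblasts, PF179T, WPMY-1, LNCaP and 22Rv1 cells were seeded into 384-well plates carrying pre-dispensed compounds at five doses covering a 10,000-fold range. After 72 h, viability was read by CellTiter-Glo 2.0 luminescence. Responses were scaled to vehicle and positive-control wells. The drug sensitivity score (DSS2) is a partial area under the fitted logistic dose–response curve divided by the log of its upper asymptote, computed in BREEZE; higher means more sensitive.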

In order of falling drug sensitivity score:
1. Cc1cc(-c2nc(-c3ccc(OC(F)(F)F)cc3)no2)nn1Cc1ccnc(N2CCN(C3CC3)CC2)c1 [BAY 87-2243] (tested concentration range 0.1-1000 nM)  26.4
2. CC(C)c1c(C(=O)Nc2ccccc2)c(-c2ccccc2)c(-c2ccc(F)cc2)n1CC[C@@H](O)C[C@@H](O)CC(=O)O [Atorvastatin] (tested concentration range 1-10000 nM)  3
3. Nc1ncn([C@@H]2O[C@H](CO)[C@@H](O)[C@H]2O)c(=O)n1 [Azacitidine] (tested concentration range 1-10000 nM)  2.6
4. CNC(=O)c1ccc(N2C(=S)N(c3cnc(C#N)c(C(F)(F)F)c3)C(=O)C23CCC3)cc1F [Apalutamide] (tested concentration range 1-10000 nM)  0.9
5. CNC(=O)c1ccccc1Sc1ccc2c(/C=C/c3ccccn3)n[nH]c2c1 [Axitinib] (tested concentration range 1-10000 nM)  0.8
6. Cc1nc2cccc(N)c2c(=O)n1C1CCC(=O)NC1=O (stereo not drawn) [Avadomide] (tested concentration range 1-10000 nM)  0.1
7. N#CC1(c2ccc(NC(=O)c3cccnc3NCc3ccncc3)cc2)CCCC1 [Apatinib] (tested concentration range 1-10000 nM)  0
8. O=C(Nc1ccc(OC(F)(F)Cl)cc1)c1cnc(N2CC[C@@H](O)C2)c(-c2cc[nH]n2)c1 [Asciminib] (tested concentration range 0.1-1000 nM)  0
9. CC(=O)OC[C@H]1O[C@@H]([S-])[C@H](OC(C)=O)[C@@H](OC(C)=O)[C@@H]1OC(C)=O.CCP(CC)CC.[Au+] [Auranofin] (tested concentration range 0.2-2500 nM)  0

test system: WPMY-1; assay: as above
How it was run: as §1

In order of falling drug sensitivity score:
1. Cc1cc(-c2nc(-c3ccc(OC(F)(F)F)cc3)no2)nn1Cc1ccnc(N2CCN(C3CC3)CC2)c1 [BAY 87-2243] (tested concentration range 0.1-1000 nM)  23.2
2. C=CCn1c(=O)c2cnc(Nc3ccc(N4CCN(C)CC4)cc3)nc2n1-c1cccc(C(C)(C)O)n1 [Adavosertib] (tested concentration range 1-10000 nM)  21.5
3. CN1CC[C@H](c2c(O)cc(O)c3c(=O)cc(-c4ccccc4Cl)oc23)[C@H](O)C1 [Alvocidib] (tested concentration range 1-10000 nM)  16.5
4. COc1cc(Nc2ncc3c(n2)-c2ccc(Cl)cc2C(c2c(F)cccc2OC)=NC3)ccc1C(=O)O [Alisertib] (tested concentration range 1-10000 nM)  16.3
5. COc1cc(NS(C)(=O)=O)ccc1Nc1c2ccccc2nc2ccccc12 [Amsacrine] (tested concentration range 1-10000 nM)  11.1
6. CC(=O)OC[C@H]1O[C@@H]([S-])[C@H](OC(C)=O)[C@@H](OC(C)=O)[C@@H]1OC(C)=O.CCP(CC)CC.[Au+] [Auranofin] (tested concentration range 0.2-2500 nM)  5.2
7. CNC(=O)c1ccccc1Sc1ccc2c(/C=C/c3ccccn3)n[nH]c2c1 [Axitinib] (tested concentration range 1-10000 nM)  4.9
8. CC(C)c1c(C(=O)Nc2ccccc2)c(-c2ccccc2)c(-c2ccc(F)cc2)n1CC[C@@H](O)C[C@@H](O)CC(=O)O [Atorvastatin] (tested concentration range 1-10000 nM)  2.7
9. Nc1ncn([C@@H]2O[C@H](CO)[C@@H](O)[C@H]2O)c(=O)n1 [Azacitidine] (tested concentration range 1-10000 nM)  2
10. Cc1nc(NC(=O)N2CCC[C@H]2C(N)=O)sc1-c1ccnc(C(C)(C)C(F)(F)F)c1 [Alpelisib] (tested concentration range 0.2-2500 nM)  1.3
11. Cn1ncc(Cl)c1-c1cc(C(=O)N[C@H](CN)Cc2cccc(F)c2)sc1Cl [Afuresertib] (tested concentration range 0.1-1000 nM)  0.6
12. CC#CC(=O)N1CCC[C@H]1c1nc(-c2ccc(C(=O)Nc3ccccn3)cc2)c2c(N)nccn12 [Acalabrutinib] (tested concentration range 0.1-1000 nM)  0
13. COc1cc(C)c(/C=C/C(C)=C/C=C/C(C)=C/C(=O)O)c(C)c1C [Acitretin] (tested concentration range 1-10000 nM)  0
14. CN(C)C/C=C/C(=O)Nc1cc2c(Nc3ccc(F)c(Cl)c3)ncnc2cc1O[C@H]1CCOC1 [Afatinib] (tested concentration range 0.1-1000 nM)  0
15. CCc1cc2c(cc1N1CCC(N3CCOCC3)CC1)C(C)(C)c1[nH]c3cc(C#N)ccc3c1C2=O [Alectinib] (tested concentration range 0.1-1000 nM)  0
16. Oc1ncnc2[nH]ncc12 [Allopurinol] (tested concentration range 1-10000 nM)  0
17. CCN(CC)CCNC(=O)c1c(C)[nH]c(/C=C2\C(=O)Nc3ccc(-c4csc(-c5ccccc5)n4)cc32)c1C [Amcasertib] (tested concentration range 1-10000 nM)  0
18. CCC1(c2ccc(N)cc2)CCC(=O)NC1=O (stereo not drawn) [Aminoglutethimide] (tested concentration range 1-10000 nM)  0
19. O=C1CN2Cc3c(ccc(Cl)c3Cl)N=C2N1 [Anagrelide] (tested concentration range 1-10000 nM)  0
20. CC(C)(C#N)c1cc(Cn2cncn2)cc(C(C)(C)C#N)c1 [Anastrozole] (tested concentration range 1-10000 nM)  0
21. CNC(=O)c1ccc(N2C(=S)N(c3cnc(C#N)c(C(F)(F)F)c3)C(=O)C23CCC3)cc1F [Apalutamide] (tested concentration range 1-10000 nM)  0
22. N#CC1(c2ccc(NC(=O)c3cccnc3NCc3ccncc3)cc2)CCCC1 [Apatinib] (tested concentration range 1-10000 nM)  0
23. O=C(Nc1ccc(OC(F)(F)Cl)cc1)c1cnc(N2CC[C@@H](O)C2)c(-c2cc[nH]n2)c1 [Asciminib] (tested concentration range 0.1-1000 nM)  0
24. Cc1nc2cccc(N)c2c(=O)n1C1CCC(=O)NC1=O (stereo not drawn) [Avadomide] (tested concentration range 1-10000 nM)  0
